Reference: patent US20100004159A1, “SUBSTITUTED IMIDAZOLONE DERIVATIVES, PREPARATIONS AND USES” (GENFIT, priority 2006, published 2010)

System: PPARs target genes
Assay: Expression of PPAR target genes by quantitative RT-PCR in db/db mouse tissue
Format: in vivo
Conditions: db/db mice, 50 mpk for 28 days
Protocol: Samples of hepatic tissue and adipose epididymal tissue were taken and frozen immediately in liquid nitrogen then conserved at −80° C. for later analysis.
Total RNA was extracted from liver fragments by using a NucleoSpine 96 RNA kit (Macherey Nagel, Hoerdt, France) according to the manufacturer's instructions.
The total RNA of the adipose tissue was extracted from tissue fragments with a method using guanidine thiocyanate. The tissues were briefly homogenized in 5 mL of a lysis buffer (guanidine thiocyanate 4M, EDTA pH8 10 mM, Tris HCl pH 7.5 50 mM and b-mercaptoethanol 1.4%) using polytron. To separate the layers, 500 μL of sodium acetate 2M pH4, 5 mL of phenol, and 2 mL of a mixture of chloroform/isoamylic alcohol (49:1) were added. After centrifugation, the aqueous layer was collected and the RNA was precipitated in the presence of isopropanol. After a second precipitation, the RNA was washed with ethanol 70°, dried, then suspended again in an volume of water free of RNase. A step of purification/DNase I treatment of the RNA was then carried out by using NucleoSpin® 96 RNA kit (Macherey-Nagel) according to the manufacturer's instructions. 1 μg of total RNA (quantified by using the Ribogreen RNA quantification kit (Molecular Probes)) was then reverse-transcribed into cDNA by means of a 1 hour reaction at 37° C. in a total volume of 20 μl containing a buffer 1× (Sigma), 1.5 mM of DTT, 0.18 mM, of dNTPs (Promega), 200 ng of pdN6 (Amersham), 30 U of RNase inhibitor (Sigma), and 1 μl of MMLV-RT (Sigma). The quantitative PCR experiments were carried out using the MyiQ Single-Color Real-Time PCR Detection System (Biorad, Marnes-la-Coquette, France) and were performed using the iQ SYBR Green Supermix kit according to the manufacturer's recommendations, in 96-well plates in 5 μl of a diluted reverse transcription solution at a hybridization temperature of 55° C. Primer pairs specific to the studied genes were used:
The quantity of emitted fluorescence is directly proportional to the quantity of cDNA present at the beginning of the reaction and amplified during the PCR. For each target studied, a range of solutions is performed with successive dilutions of a mixture made up of a few μl of different reverse-transcription solutions. The relative levels of expression of each target are thus determined by using efficiency curves obtained with the points relative to the range.
The expression levels of the genes of interest were then normalized, in the hepatic tissue with respect to the level expression of reference gene 36B4 (whose specific primers are: sense primer: 5′-[…]-3′ (SEQ ID NO: 15) and antisense primer: 5′-[…]-3′ (SEQ ID NO: 16)), and in the adipose tissue with respect to reference gene 18S (whose specific primers are: sense primer: 5′-[…]-3′ (SEQ ID NO: 17) and antisense primer: 5′-[…]-3′ (SEQ ID NO: 18)). The induction factor was then calculated for each sample. The higher the induction factor is, the more the compound promotes gene expression. The final result is represented as the average of the induction values within each experimental group.

With CCCCC1=NC2(CCCC2)C(=O)N1Cc1ccc(-c2cccc(OC(C)(C)C(=O)O)c2)cc1 [Compound 1, 2-butyl-1-[(3′-((1-carboxy-1,1-dimethylmethyl)oxy)biphenyl-4-yl)methyl]-4-spirocyclopentyl-1H-imidazol-5(4H)-one] as the compound, how does the “hepatic expression of the gene coding for CPT1 b” value read?
Its value is “significant increase”.

What about the “hepatic expression of the gene coding for PDK-4” value of the same compound?
Its value is “significant increase”.

What about the “expression of the gene coding for ApoCIII” value (liver) of the same compound?
Its value is “significant decrease”.

What about the “expression of the gene coding for FBb” value (liver) of the same compound?
Its value is “significant decrease”.
